From patent US6335332B1, “Barbituric acid derivatives with antimetastatic and antitumor activity” (Roche Diagnostics GmbH, priority 1997, dated 2002)
Read-outs that look alike come from different tables or passages of the source.

Columns and labels:
[1] = molecular target: T1, MMP8 (human neutrophil collagenase) catalytic domain (Homo sapiens, UniProt P22894); assay: Inhibition of MMP8 catalytic domain, fluorescent DNP-substrate degradation; assay type: biochemical
T1 construct: by means of the catalytic domain of MMP8
Procedure: Said test provides for the determination via fluorescence of the inhibition of the degradation of a fluorescent substrate (DNP-Pro-Leu-Gly-Leu-Trp-Ala-D-Arg-[…], M1855 Bachem) by means of the catalytic domain of MMP8.
(§1) Reagents: 1) DNP-substrate=DNP-Pro-Leu-Gly-Leu-Trp-Ala-D-Arg-NH2 (M1855 Bachem), M. W. 977,l g/mol, concentration 25 μM in DMSO, 2) measurement buffer=50 mM TRIS/100 mM NaCl/10 mM CaCl2.2H2O, adjusted at pH 7 6 with hydrochloric acid. 3) Enzyme=catalytic domain of MMP8 ([…]), concentration 0.055 mg/ml in TRIS buffer. Substrate and enzyme are maintained at 0° C. with ice bath.
(§2) Total volume=1 ml of solution kept under stirring in a cuvette
(§3) It is measured the fluoresence at 346 nm both of the control solution (without inhibitor) and of the solution containing the inhibitor. The inhibition of the catalytic activity of MMP8 results in the decrease of the DNP-substrate bond's lysis, with related decrease of the fluorescence of the solution.
(§4) The percentage of inhibition is expressed by the following formula:
(§5) % Inhibition=100−(rel. unit/timewith inhibitor/rel. unit/timecontrol×100)
(§6) By repeating the experiment at different concentrations of inhibitor it is possible to determine the IC50 value.

[2] = molecular target: T2, MMP-9 (gelentinase 92 kD) (Homo sapiens, UniProt P14780); assay: Inhibition of MMP-9 catalytic domain (same test as MMP8); assay type: biochemical
T2 construct: MMP-9 IC50; other: catalytic domain
T2 sequence (P14780 with tags, fused parts or gaps DEL217-390 limits assumed): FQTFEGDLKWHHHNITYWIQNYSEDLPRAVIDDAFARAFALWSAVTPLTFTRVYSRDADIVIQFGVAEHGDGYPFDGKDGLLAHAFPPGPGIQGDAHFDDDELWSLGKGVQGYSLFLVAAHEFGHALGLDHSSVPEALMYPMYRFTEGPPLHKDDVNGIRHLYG
Procedure: The compounds of the present invention have been tested in a pharmacological “in vitro” test of inhibition of MMP8 (human neutrophil collagenase). Said test provides for the determination via fluorescence of the inhibition of the degradation of a fluorescent substrate (DNP-Pro-Leu-Gly-Leu-Trp-Ala-D-Arg-[…], M1855 Bachem) by means of the catalytic domain of MMP8.
as §1, §2, §3, §4, §5, §6
The same test has been performed also on the MMP-9 (gelentinase 92 kD) and the selectivity between the two enzymes has been evaluated. Values of MMP-9/MMP-8 rate well below 1 are expected to give rise to less side toxic effects, since MMP-8 seems more involved in the regulation of vital functions that MMP-9 does.

[3] = tested on: human fibrosarcoma HT1080 cells; assay: Test of chemoinvasion through Type IV collagen coated Transwell chambers; assay type: cell-based; conditions: HT-1080, concentration 10^-7 M
Procedure: The compounds of the present invention have also shown activity in a test of chemoinvasion. In the test of chemoinvasion the Costar Transwell chambers for cell culture (diameter: 6.5 mm: pore size: 8 μm) are coated with 100 μl of Type IV collagen (diluted solution 50 μg/ml, then evaporation overnight). With the same procedure the chambers are coated with a second layer of Type IV collagen (100 μl of solution at concentration 50 μg/ml). Before use, the chambers are rinsed twice with sterile water and incubated for about 1 hour at 37° C. in a serum-free medium (DMEM).
The human fibrosarcoma HT1080 cells are harvested by trypsin-EDTA treatment, washed with DMEM-10% FCS and incubated for at least 30 minutes at 37° C. in the same medium. The cells are then washed with serum-free DMEM and resuspended in serum-free DMEM added with 0.1% BSA (fraction V), counted and diluted to obtain a final density of 3×10^5 cell/ml.
Preincubated inserts are aspirated to remove the serum-free medium. […]
Incubated filters are then washed with PBS, the cells are fixed 15 min. in 4% paraformaldehyde, permeabilized in methanol (10 minutes, −20° C.) and stained with May-Grunwald-Giemsa. Cells which adhere to the top of the filters are removed with a cotton swab, filters are detached from the bottom of the chambers and analyzed with microscope to determine the number of cells on the lower side of the filters. […]

T1 sequence (P22894 100-262 limits assumed): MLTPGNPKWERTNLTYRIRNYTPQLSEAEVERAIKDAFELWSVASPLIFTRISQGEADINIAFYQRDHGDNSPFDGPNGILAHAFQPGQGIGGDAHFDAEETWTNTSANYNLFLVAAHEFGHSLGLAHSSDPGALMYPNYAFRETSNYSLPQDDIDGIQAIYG

Row | SMILES | IC50 [1] | IC50 [2] | inhibition at 0.1 µM [3] | IC50 ([2]; catalytic domain, read-out: MMP-9 IC50)
1 | CCCCCCCCC1(CC(=O)OCC)C(=O)NC(=O)NC1=O [Example 1, 5-octyl-5-(ethoxycarbonylmethyl)barbituric acid] | 107 nM | 19.6 nM |  | 
2 | CCCCCCCCC1(CC(=O)NCCNC(C)=O)C(=O)NC(=O)NC1=O [Example 5, 5-octyl-5-(carboxymethyl)barbituric acid N′-acetyl N-ethylenediamide] | 99 nM | 20 nM |  | 
3 | CCCCCCCCC1(CC(=O)N(CCNC(C)=O)Cc2ccccc2)C(=O)NC(=O)NC1=O [Example 6, 5-octyl-5-(carboxymethyl)barbituric acid N′-acetyl-N-benzyl-N-ethylenediamide] | 68 nM | 14 nM | 73% | 
4 | CNC(=O)[C@H](Cc1ccccc1)NC(=O)[C@H](CC(C)C)[C@H](CSc1ccccc1)C(=O)NO [GI 129471, reference compound] |  |  | 77% | 
5 | CNC(=O)[C@H](Cc1ccccc1)NC(=O)[C@H](CC(C)C)[C@H](CSc1cccs1)C(=O)NO [batimastat, reference compound] |  |  |  | 25 nM
